Assays:
Type in all cases: cell-based, human
MM.1S cells = assay: Whole-transcriptome RNA-Seq; settings: for differentially expressed genes: 1 μM, 48 hrs, fold-change > 2, FDR-corrected P < 0.01
Experimental: The effect of small molecule treatment on transcriptome-wide RNA expression was evaluated using bulk RNA sequencing of 5 biological replicates per sample. […] 48 hours following treatment, cells were washed with PBS and lysed in RLT buffer (Qiagen) with β-mercaptoethanol. Total RNA from each sample was purified from 2–4×10^5 cells using the RNeasy Mini Kit (Qiagen) with on-column DnaseI digestion and eluted in nuclease-free water. Polyadenylated RNA was sequenced using Smart-seq2 as previously described ([82]) with two changes: 20 ng of total RNA and Maxima Rnase H-minus reverse transcriptase (Thermo Fisher) were used for the initial reverse transcription step. The resulting cDNA libraries were sequenced on an Illumina NextSeq 550 High Output kit with the following run parameters: 37 cycles for read1, 37 cycles for read2, 8 cycles for index1, and 8 cycles for index2.
Sequencing data were demultiplexed with bcl2fastq and roughly 40 million paired-end reads were obtained per sample. Transcript-level quantification was performed using kallisto ([83]) with the homo sapiens GRCh38 reference transcriptome and with bootstrapping. Differential expression analysis at the gene level was conducted using Deseq2 with batch correction of biological replicates ([84]). To pre-filter low count genes, only genes with at least 10 counts in at least 5 samples were analyzed. Compared between conditions, genes with a transcript abundance fold-change > 2 and with a false discovery rate-corrected P-value < 0.01 were called as differentially expressed.

MOLT4 cells = assay: Global quantitative proteomics, MOLT4; settings: 1 µM; for proteins downregulated (in words): 5 hours, threshold ≥ 2-fold at p ≤ 0.0001
Experimental: (§1) Cells were lysed by addition of lysis buffer (8 M Urea, 50 mM NaCl, 50 mM 4-(2-hydroxyethyl)-1-piperazineethanesulfonic acid (EPPS) pH 8.5, Protease and Phosphatase inhibitors) and homogenization by bead beating (BioSpec) for three repeats of 30 seconds at 2400. Bradford assay was used to determine the final protein concentration in the clarified cell lysate. 50 μg of protein for each sample was reduced, alkylated and precipitated using methanol/chloroform as previously described ([32]) and the resulting washed precipitated protein was allowed to air dry. Precipitated protein was resuspended in 4 M Urea, 50 mM HEPES pH 7.4, followed by dilution to <1 M urea with the addition of 200 mM EPPS, pH 8. Proteins were digested with LysC (1:50; enzyme:protein) and trypsin (1:50; enzyme:protein) overnight at 37 °C. Sample digests were acidified with formic acid to a pH of 2-3 prior to desalting using C18 solid phase extraction plates (SOLA, Thermo Fisher Scientific). Desalted peptides were dried in a vacuum centrifuge and reconstituted in 0.1% formic acid for LC-MS analysis.
(§2) Data were collected using a TimsTOF Pro2 (Bruker Daltonics, Bremen, Germany) coupled to a nanoElute LC pump (Bruker Daltonics, Bremen, Germany) via a CaptiveSpray nano-electrospray source. Peptides were separated on a reversed-phase C18 column (25 cm x 75 μm ID, […], IonOpticks, Australia) containing an integrated captive spray emitter. Peptides were separated using a 50 min gradient of 2 – 30% buffer B (acetonitrile in 0.1% formic acid) with a flow rate of 250 nL/min and column temperature maintained at 50 °C.
(§3) DDA was performed in Parallel Accumulation-Serial Fragmentation (PASEF) mode to determine effective ion mobility windows for downstream diaPASEF data collection (Meier et al., 2020). The ddaPASEF parameters included: 100% duty cycle using accumulation and ramp times of 50 ms each, 1 TIMS-MS scan and 10 PASEF ramps per acquisition cycle. The TIMS-MS survey scan was acquired between 100–1700 m/z and 1/k0 of 0.7–1.3 V.s/cm^2. Precursors with 1–5 charges were selected and those that reached an intensity threshold of 20,000 arbitrary units were actively excluded for 0.4 min. The quadrupole isolation width was set to 2 m/z for m/z <700 and 3 m/z for m/z >800, with the m/z between 700–800 m/z being interpolated linearly. The TIMS elution voltages were calibrated linearly with three points (Agilent ESI-L Tuning Mix Ions; 622, 922, 1,222 m/z) to determine the reduced ion mobility coefficients (1/K0). To perform diaPASEF, the precursor distribution in the DDA m/z-ion mobility plane was used to design an acquisition scheme for DIA data collection which included two windows in each 50 ms diaPASEF scan. Data was acquired using sixteen of these 25 Da precursor double window scans (creating 32 windows) which covered the diagonal scan line for doubly and triply charged precursors, with singly charged precursors able to be excluded by their position in the m/z-ion mobility plane. These precursor isolation windows were defined between 400–1200 m/z and 1/k0 of 0.7–1.3 V.s/cm^2.
(§4) The diaPASEF raw file processing and controlling peptide and protein level false discovery rates, assembling proteins from peptides, and protein quantification from peptides was performed using either targeted, cell line specific spectral libraries generated by searching offline fractionated DDApasef data against a Swissprot human or mouse database (January 2021) or using library free analysis in DIA-NN 1.8 ([85]). Library free mode performs an in-silico digestion of a given protein sequence database alongside deep learning-based predictions to extract the DIA precursor data into a collection of MS2 spectra. The search results are then used to generate a spectral library which is then employed for the targeted analysis of the DIA data searched against a Swissprot human or mouse database (January 2021). […]

KELLY cells = assay: Global quantitative proteomics, KELLY; settings: 1 µM; for proteins downregulated (in words): 5 hours
Experimental: as §1, §2, §3, §4

[1] = test system: HEK293T cells stably expressing SD40–eGFP; assay: Global quantitative proteomics, HEK293T expressing SD40–eGFP; settings: 1 µM
Experimental: To test the versatility of SD40, we generated five stable HEK293T cell lines that exogenously express N- or C-terminal SD40 fusions with Nluc, Fluc, and the kinase activator PRKRA. […] To investigate whether SD40 targets unintended neosubstrates for degradation, we performed global proteomics using HEK293T cells stably expressing SD40–eGFP.
as §1, §2, §3
The diaPASEF raw file processing and controlling peptide and protein level false discovery rates, assembling proteins from peptides, and protein quantification from peptides was performed using either targeted, cell line specific spectral libraries generated by searching offline fractionated DDApasef data against a Swissprot human or mouse database (January 2021) or using library free analysis in DIA-NN 1.8 ([85]). […]

[2] = vs DMSO, 5 hr, HEK293T SD40–eGFP
[3] = vs DMSO, 24 hr, HEK293T SD40–eGFP

Question: Which differentially expressed genes (MM.1S cells) does the source give for `Nc1cccc2c1C(=O)N(C1CCC(=O)NC1=O)C2=O` (centres unmarked) [pomalidomide, reference compound] here?
Answer: Its differentially expressed genes is 1,426 genes.

Question: What about the “proteins downregulated (in words)” value (MOLT4 cells) of the same molecule?
Answer: Its value is “significant downregulation of the previously identified neosubstrates IKZF1 ([9]) and ZFP91”.

Question: What about the “logFC DYNLT1 (P63172)” value (MOLT4 cells; vs DMSO, 5 hr, MOLT4) of the same molecule?
Answer: Its value is -9.35E-01.

Question: What about the “logFC IKZF1 (Q13422)” value (MOLT4 cells; vs DMSO, 5 hr, MOLT4) of the same molecule?
Answer: Its value is -2.37E+00.

Question: What about the “logFC IKZF3 (Q9UKT9)” value (MOLT4 cells; vs DMSO, 5 hr, MOLT4) of the same molecule?
Answer: Its value is -9.56E-01.

Question: And the “logFC RAB28 (P51157)” value (MOLT4 cells; vs DMSO, 5 hr, MOLT4)?
Answer: The value was -1.66E+00.

Question: What about the “logFC ZFP91 (Q96JP5)” value (MOLT4 cells; vs DMSO, 5 hr, MOLT4) of the same molecule?
Answer: The value was -1.83E+00.

Question: And the “proteins downregulated (in words)” value (KELLY cells)?
Answer: The value was “robust downregulation of the developmental transcription factor SALL4 ([32]) and ZFP91”.

Question: What about the “logFC DTWD1 (Q8N5C7)” value (KELLY cells; vs DMSO, 5 hr, KELLY) of the same molecule?
Answer: The value was -1.64E+00.

Question: And the “logFC GID8 (Q9NWU2)” value (KELLY cells; vs DMSO, 5 hr, KELLY)?
Answer: Its value is -1.75E+00.

Question: What about the “logFC RAB28 (P51157)” value (KELLY cells; vs DMSO, 5 hr, KELLY) of the same molecule?
Answer: Its value is -1.53E+00.

Question: And the “logFC SALL4 (Q9UJQ4)” value (KELLY cells; vs DMSO, 5 hr, KELLY)?
Answer: Its value is -2.26E+00.

Question: What about the “logFC SSNA1 (O43805)” value (KELLY cells; vs DMSO, 5 hr, KELLY) of the same molecule?
Answer: Its value is -1.42E+00.

Question: And the “proteins degraded (in words)” value ([1]; 5 hours)?
Answer: The value was “SD40-eGFP was significantly degraded alongside multiple known endogenous neosubstrates of pomalidomide”.

Question: And the “logFC MCFD2 (Q8NI22)” value [1, 2]?
Answer: Its value is -1.02E+00.

Question: What about the “logFC SD40 (XSD40X; SD40–eGFP)” value [1, 2] of the same molecule?
Answer: The value was -4.04E+00.

Question: What about the “logFC SRSF3 (P84103)” value [1, 2] of the same molecule?
Answer: The value was -1.12E-01.

Question: What about the “logFC SURF4 (O15260)” value [1, 2] of the same molecule?
Answer: Its value is 2.44E-01.

Question: And the “logFC ZFP91 (Q96JP5)” value [1, 2]?
Answer: Its value is -2.03E+00.

Question: Which differentially expressed genes (MM.1S cells) does the source give for `O=C1CCC(N2C(=O)c3ccc(N4CCOCC4)cc3C2=O)C(=O)N1` (centres unmarked) [PT-179] here?
Answer: Its differentially expressed genes is “three”.

Question: What about the “decrease in the frequency of gene expression perturbation” value (MM.1S cells; PT-179 vs pomalidomide) of the same molecule?
Answer: Its value is 475 fold.

Question: And the “proteins downregulated (in words)” value (MOLT4 cells)?
Answer: Its value is “did not significantly downregulate any detected proteins”.

Question: And the “logFC ACSL1 (P33121)” value (MOLT4 cells; vs DMSO, 5 hr, MOLT4)?
Answer: The value was -1.03E+00.

Question: And the “logFC APOBEC3C (Q9NRW3)” value (MOLT4 cells; vs DMSO, 5 hr, MOLT4)?
Answer: The value was -8.07E-01.

Question: And the “logFC ARAP2 (Q8WZ64)” value (MOLT4 cells; vs DMSO, 5 hr, MOLT4)?
Answer: Its value is -9.22E-01.

Question: And the “logFC NXT1 (Q9UKK6)” value (MOLT4 cells; vs DMSO, 5 hr, MOLT4)?
Answer: Its value is -8.48E-01.

Question: And the “logFC SNX11 (Q9Y5W9)” value (MOLT4 cells; vs DMSO, 5 hr, MOLT4)?
Answer: Its value is -9.02E-01.

Question: What about the “proteins downregulated (in words)” value (KELLY cells) of the same molecule?
Answer: The value was “no significant degradation of detected proteins”.

Question: And the “logFC GLMP (Q8WWB7)” value (KELLY cells; vs DMSO, 5 hr, KELLY)?
Answer: The value was -1.07E+00.

Question: And the “logFC KIAA1958 (Q8N8K9)” value (KELLY cells; vs DMSO, 5 hr, KELLY)?
Answer: The value was -1.94E+00.

Question: What about the “logFC SYT14 (Q8NB59)” value (KELLY cells; vs DMSO, 5 hr, KELLY) of the same molecule?
Answer: The value was -1.10E+00.

Question: And the “logFC TIMM8B (Q9Y5J9)” value (KELLY cells; vs DMSO, 5 hr, KELLY)?
Answer: Its value is -1.14E+00.

Question: And the “logFC TUB (P50607)” value (KELLY cells; vs DMSO, 5 hr, KELLY)?
Answer: Its value is -1.12E+00.

Question: And the “proteins degraded (in words)” value ([1]; 5 and 24 hours, ≥ 2-fold at p ≤ 0.0001, ~7,800 detected)?
Answer: The value was “SD40–eGFP was the only significantly degraded protein”.

Question: What about the “logFC MFSD10 (Q14728)” value [1, 2] of the same molecule?
Answer: Its value is -5.07E-01.

Question: What about the “logFC RAB18 (Q9NP72)” value [1, 2] of the same molecule?
Answer: Its value is -1.62E-01.

Question: And the “logFC RALY (Q9UKM9)” value [1, 2]?
Answer: The value was -1.52E-01.

Question: What about the “logFC SD40 (XSD40X; SD40–eGFP)” value [1, 2] of the same molecule?
Answer: Its value is -4.05E+00.

Question: And the “logFC SYNCRIP (O60506)” value [1, 2]?
Answer: The value was -1.02E-01.

Question: What about the “logFC H2AFV (Q71UI9)” value [1, 3] of the same molecule?
Answer: Its value is 1.94E-01.

Question: What about the “logFC RPS15 (P62841)” value [1, 3] of the same molecule?
Answer: Its value is 1.99E-01.

Question: What about the “logFC SD40 (XSD40X; SD40–eGFP)” value [1, 3] of the same molecule?
Answer: Its value is -3.53E+00.

Question: What about the “logFC SUMO1P1 (G2XKQ0)” value [1, 3] of the same molecule?
Answer: The value was 1.61E-01.

Question: And the “logFC TAGLN3 (Q9UI15)” value [1, 3]?
Answer: The value was 4.42E-01.

Reference: paper PMC11203266, “Continuous evolution of compact protein degradation tags regulated by selective molecular glues” (Science (New York, N.Y.), 2024)
